Measurements: paper PMC10601436 (ACS Omega, 2023)
Peptide text beside a SMILES is read from it.

target: hDPP-IV (Homo sapiens, UniProt P27487); experiment: DPP-IV inhibitory assay; assay type: biochemical
Sequence (P27487 whole entry): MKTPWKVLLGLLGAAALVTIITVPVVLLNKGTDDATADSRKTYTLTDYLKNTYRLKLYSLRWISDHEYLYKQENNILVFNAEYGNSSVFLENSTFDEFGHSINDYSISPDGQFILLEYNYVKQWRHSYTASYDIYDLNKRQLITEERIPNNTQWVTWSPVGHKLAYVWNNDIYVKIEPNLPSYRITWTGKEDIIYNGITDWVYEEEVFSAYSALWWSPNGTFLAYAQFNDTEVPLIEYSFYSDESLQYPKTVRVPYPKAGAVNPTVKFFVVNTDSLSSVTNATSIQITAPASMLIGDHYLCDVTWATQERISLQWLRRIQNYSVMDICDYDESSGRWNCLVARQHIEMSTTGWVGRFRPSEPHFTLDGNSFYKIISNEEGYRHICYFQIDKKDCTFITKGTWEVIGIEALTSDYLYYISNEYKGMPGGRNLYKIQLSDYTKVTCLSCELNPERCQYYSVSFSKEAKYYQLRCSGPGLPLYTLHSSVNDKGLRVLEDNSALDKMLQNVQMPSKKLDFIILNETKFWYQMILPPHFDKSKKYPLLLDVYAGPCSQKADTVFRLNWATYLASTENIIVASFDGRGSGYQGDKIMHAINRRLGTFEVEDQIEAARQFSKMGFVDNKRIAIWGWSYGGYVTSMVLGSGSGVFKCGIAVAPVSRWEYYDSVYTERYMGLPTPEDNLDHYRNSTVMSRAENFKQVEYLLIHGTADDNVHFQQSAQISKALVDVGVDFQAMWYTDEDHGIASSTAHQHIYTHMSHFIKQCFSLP

| Compound | IC50 |
| --- | --- |
| CC[C@H](C)[C@H](N)C(=O)N1CCC[C@H]1C(=O)N[C@H](C(=O)N1CCC[C@H]1C(=O)N[C@H](C(=O)O)[C@@H](C)CC)[C@@H](C)CC [IPIPI] (H-IPIPI-OH) | 47.5 µM |
| CC(C)[C@H](N)C(=O)N1CCC[C@H]1C(=O)N[C@H](C(=O)N1CCC[C@H]1C(=O)N[C@@H](CS)C(=O)O)C(C)C [VPVPC] (H-VPVPC-OH) | 54.8 µM |
| CC(C)[C@H](N)C(=O)N1CCC[C@H]1C(=O)N[C@H](C(=O)N1CCC[C@H]1C(=O)N[C@@H](Cc1c[nH]cn1)C(=O)O)C(C)C [VPVPH] (H-VPVPH-OH) | 51.1 µM |
| C[C@H](NC(=O)[C@H](C)NC(=O)[C@@H](N)Cc1c[nH]c2ccccc12)C(=O)O [WAA] (H-Trp-Ala-Ala-OH) | 275 µM |
| C[C@H](NC(=O)[C@@H](N)Cc1c[nH]c2ccccc12)C(=O)N[C@@H](CS)C(=O)O [WAC] (H-Trp-Ala-Cys-OH) | 283 µM |
| C[C@H](NC(=O)[C@@H](N)Cc1c[nH]c2ccccc12)C(=O)N[C@@H](CC(=O)O)C(=O)O [WAD] (H-Trp-Ala-Asp-OH) | 433 µM |
| C[C@H](NC(=O)[C@@H](N)Cc1c[nH]c2ccccc12)C(=O)N[C@@H](CCC(=O)O)C(=O)O [WAE] (H-Trp-Ala-Glu-OH) | 462 µM |
| C[C@H](NC(=O)[C@@H](N)Cc1c[nH]c2ccccc12)C(=O)N[C@@H](Cc1ccccc1)C(=O)O [WAF] (H-Trp-Ala-Phe-OH) | 153 µM |
| C[C@H](NC(=O)[C@@H](N)Cc1c[nH]c2ccccc12)C(=O)NCC(=O)O [WAG] (H-Trp-Ala-Gly-OH) | 352 µM |
| C[C@H](NC(=O)[C@@H](N)Cc1c[nH]c2ccccc12)C(=O)N[C@@H](Cc1c[nH]cn1)C(=O)O [WAH] (H-Trp-Ala-His-OH) | 190 µM |
| CC[C@H](C)[C@H](NC(=O)[C@H](C)NC(=O)[C@@H](N)Cc1c[nH]c2ccccc12)C(=O)O [WAI] (H-Trp-Ala-Ile-OH) | 199 µM |
| CC(C)C[C@H](NC(=O)[C@H](C)NC(=O)[C@@H](N)Cc1c[nH]c2ccccc12)C(=O)O [WAL] (H-Trp-Ala-Leu-OH) | 260 µM |
| CSCC[C@H](NC(=O)[C@H](C)NC(=O)[C@@H](N)Cc1c[nH]c2ccccc12)C(=O)O [WAM] (H-Trp-Ala-Met-OH) | 330 µM |
| C[C@H](NC(=O)[C@@H](N)Cc1c[nH]c2ccccc12)C(=O)N[C@@H](CC(N)=O)C(=O)O [WAN] (H-Trp-Ala-Asn-OH) | 302 µM |
| C[C@H](NC(=O)[C@@H](N)Cc1c[nH]c2ccccc12)C(=O)N1CCC[C@H]1C(=O)O [WAP] (H-Trp-Ala-Pro-OH) | 441 µM |
| C[C@H](NC(=O)[C@@H](N)Cc1c[nH]c2ccccc12)C(=O)N[C@@H](CCC(N)=O)C(=O)O [WAQ] (H-Trp-Ala-Gln-OH) | 289 µM |
| C[C@H](NC(=O)[C@@H](N)Cc1c[nH]c2ccccc12)C(=O)N[C@@H](CCCNC(=N)N)C(=O)O [WAR] (H-Trp-Ala-Arg-OH) | 665 µM |
| C[C@H](NC(=O)[C@@H](N)Cc1c[nH]c2ccccc12)C(=O)N[C@H](C(=O)O)[C@@H](C)O [WAT] (H-Trp-Ala-Thr-OH) | 296 µM |
| CC(C)[C@H](NC(=O)[C@H](C)NC(=O)[C@@H](N)Cc1c[nH]c2ccccc12)C(=O)O [WAV] (H-Trp-Ala-Val-OH) | 250 µM |
| C[C@H](NC(=O)[C@@H](N)Cc1c[nH]c2ccccc12)C(=O)N[C@@H](Cc1c[nH]c2ccccc12)C(=O)O [WAW] (H-Trp-Ala-Trp-OH) | 104 µM |
| C[C@H](NC(=O)[C@@H](N)Cc1c[nH]c2ccccc12)C(=O)N[C@@H](Cc1ccc(O)cc1)C(=O)O [WAY] (H-Trp-Ala-Tyr-OH) | 117 µM |

| Compound | IC50 |
| --- | --- |
| C[C@H](NC(=O)[C@@H]1CCCN1C(=O)[C@@H](N)Cc1c[nH]c2ccccc12)C(=O)O [WPA] (H-Trp-Pro-Ala-OH) | 206 µM |
| N[C@@H](Cc1c[nH]c2ccccc12)C(=O)N1CCC[C@H]1C(=O)N[C@@H](CS)C(=O)O [WPC] (H-Trp-Pro-Cys-OH) | 739 µM |
| N[C@@H](Cc1c[nH]c2ccccc12)C(=O)N1CCC[C@H]1C(=O)N[C@@H](CC(=O)O)C(=O)O [WPD] (H-Trp-Pro-Asp-OH) | 481 µM |
| N[C@@H](Cc1c[nH]c2ccccc12)C(=O)N1CCC[C@H]1C(=O)N[C@@H](CCC(=O)O)C(=O)O [WPE] (H-Trp-Pro-Glu-OH) | 353 µM |
| N[C@@H](Cc1c[nH]c2ccccc12)C(=O)N1CCC[C@H]1C(=O)N[C@@H](Cc1ccccc1)C(=O)O [WPF] (H-Trp-Pro-Phe-OH) | 286 µM |
| N[C@@H](Cc1c[nH]c2ccccc12)C(=O)N1CCC[C@H]1C(=O)NCC(=O)O [WPG] (H-Trp-Pro-Gly-OH) | 135 µM |
| N[C@@H](Cc1c[nH]c2ccccc12)C(=O)N1CCC[C@H]1C(=O)N[C@@H](Cc1c[nH]cn1)C(=O)O [WPH] (H-Trp-Pro-His-OH) | 315 µM |
| CC(C)C[C@H](NC(=O)[C@@H]1CCCN1C(=O)[C@@H](N)Cc1c[nH]c2ccccc12)C(=O)O [WPL] (H-Trp-Pro-Leu-OH) | 461 µM |
| CSCC[C@H](NC(=O)[C@@H]1CCCN1C(=O)[C@@H](N)Cc1c[nH]c2ccccc12)C(=O)O [WPM] (H-Trp-Pro-Met-OH) | 219 µM |
| NC(=O)C[C@H](NC(=O)[C@@H]1CCCN1C(=O)[C@@H](N)Cc1c[nH]c2ccccc12)C(=O)O [WPN] (H-Trp-Pro-Asn-OH) | 129 µM |
| N[C@@H](Cc1c[nH]c2ccccc12)C(=O)N1CCC[C@H]1C(=O)N1CCC[C@H]1C(=O)O [WPP] (H-Trp-Pro-Pro-OH) | 303 µM |
| NC(=O)CC[C@H](NC(=O)[C@@H]1CCCN1C(=O)[C@@H](N)Cc1c[nH]c2ccccc12)C(=O)O [WPQ] (H-Trp-Pro-Gln-OH) | 196 µM |
| N=C(N)NCCC[C@H](NC(=O)[C@@H]1CCCN1C(=O)[C@@H](N)Cc1c[nH]c2ccccc12)C(=O)O [WPR] (H-Trp-Pro-Arg-OH) | 209 µM |
| N[C@@H](Cc1c[nH]c2ccccc12)C(=O)N1CCC[C@H]1C(=O)N[C@@H](CO)C(=O)O [WPS] (H-Trp-Pro-Ser-OH) | 588 µM |
| C[C@@H](O)[C@H](NC(=O)[C@@H]1CCCN1C(=O)[C@@H](N)Cc1c[nH]c2ccccc12)C(=O)O [WPT] (H-Trp-Pro-Thr-OH) | 435 µM |
| CC(C)[C@H](NC(=O)[C@@H]1CCCN1C(=O)[C@@H](N)Cc1c[nH]c2ccccc12)C(=O)O [WPV] (H-Trp-Pro-Val-OH) | 511 µM |
| N[C@@H](Cc1c[nH]c2ccccc12)C(=O)N1CCC[C@H]1C(=O)N[C@@H](Cc1c[nH]c2ccccc12)C(=O)O [WPW] (H-Trp-Pro-Trp-OH) | 183 µM |
| N[C@@H](Cc1c[nH]c2ccccc12)C(=O)N1CCC[C@H]1C(=O)N[C@@H](Cc1ccc(O)cc1)C(=O)O [WPY] (H-Trp-Pro-Tyr-OH) | 304 µM |
| C[C@H](NC(=O)[C@H](CCCNC(=N)N)NC(=O)[C@@H](N)Cc1c[nH]c2ccccc12)C(=O)O [WRA] (H-Trp-Arg-Ala-OH) | 535 µM |
| N=C(N)NCCC[C@H](NC(=O)[C@@H](N)Cc1c[nH]c2ccccc12)C(=O)N[C@@H](CS)C(=O)O [WRC] (H-Trp-Arg-Cys-OH) | 210 µM |
| N=C(N)NCCC[C@H](NC(=O)[C@@H](N)Cc1c[nH]c2ccccc12)C(=O)N[C@@H](CC(=O)O)C(=O)O [WRD] (H-Trp-Arg-Asp-OH) | 204 µM |

| Compound | IC50 |
| --- | --- |
| N=C(N)NCCC[C@H](NC(=O)[C@@H](N)Cc1c[nH]c2ccccc12)C(=O)N[C@@H](CCC(=O)O)C(=O)O [WRE] (H-Trp-Arg-Glu-OH) | 160 µM |
| N=C(N)NCCC[C@H](NC(=O)[C@@H](N)Cc1c[nH]c2ccccc12)C(=O)N[C@@H](Cc1ccccc1)C(=O)O [WRF] (H-Trp-Arg-Phe-OH) | 257 µM |
| N=C(N)NCCC[C@H](NC(=O)[C@@H](N)Cc1c[nH]c2ccccc12)C(=O)NCC(=O)O [WRG] (H-Trp-Arg-Gly-OH) | 270 µM |
| N=C(N)NCCC[C@H](NC(=O)[C@@H](N)Cc1c[nH]c2ccccc12)C(=O)N[C@@H](Cc1c[nH]cn1)C(=O)O [WRH] (H-Trp-Arg-His-OH) | 277 µM |
| CC[C@H](C)[C@H](NC(=O)[C@H](CCCNC(=N)N)NC(=O)[C@@H](N)Cc1c[nH]c2ccccc12)C(=O)O [WRI] (H-Trp-Arg-Ile-OH) | 330 µM |
| CC(C)C[C@H](NC(=O)[C@H](CCCNC(=N)N)NC(=O)[C@@H](N)Cc1c[nH]c2ccccc12)C(=O)O [WRL] (H-Trp-Arg-Leu-OH) | 151 µM |
| CSCC[C@H](NC(=O)[C@H](CCCNC(=N)N)NC(=O)[C@@H](N)Cc1c[nH]c2ccccc12)C(=O)O [WRM] (H-Trp-Arg-Met-OH) | 897 µM |
| N=C(N)NCCC[C@H](NC(=O)[C@@H](N)Cc1c[nH]c2ccccc12)C(=O)N[C@@H](CC(N)=O)C(=O)O [WRN] (H-Trp-Arg-Asn-OH) | 313 µM |
| N=C(N)NCCC[C@H](NC(=O)[C@@H](N)Cc1c[nH]c2ccccc12)C(=O)N1CCC[C@H]1C(=O)O [WRP] (H-Trp-Arg-Pro-OH) | 742 µM |
| N=C(N)NCCC[C@H](NC(=O)[C@@H](N)Cc1c[nH]c2ccccc12)C(=O)N[C@@H](CCC(N)=O)C(=O)O [WRQ] (H-Trp-Arg-Gln-OH) | 286 µM |
| N=C(N)NCCC[C@H](NC(=O)[C@@H](N)Cc1c[nH]c2ccccc12)C(=O)N[C@@H](CO)C(=O)O [WRS] (H-Trp-Arg-Ser-OH) | 265 µM |
| C[C@@H](O)[C@H](NC(=O)[C@H](CCCNC(=N)N)NC(=O)[C@@H](N)Cc1c[nH]c2ccccc12)C(=O)O [WRT] (H-Trp-Arg-Thr-OH) | 556 µM |
| CC(C)[C@H](NC(=O)[C@H](CCCNC(=N)N)NC(=O)[C@@H](N)Cc1c[nH]c2ccccc12)C(=O)O [WRV] (H-Trp-Arg-Val-OH) | 541 µM |
| N=C(N)NCCC[C@H](NC(=O)[C@@H](N)Cc1c[nH]c2ccccc12)C(=O)N[C@@H](Cc1c[nH]c2ccccc12)C(=O)O [WRW] (H-Trp-Arg-Trp-OH) | 603 µM |
| N=C(N)NCCC[C@H](NC(=O)[C@@H](N)Cc1c[nH]c2ccccc12)C(=O)N[C@@H](Cc1ccc(O)cc1)C(=O)O [WRY] (H-Trp-Arg-Tyr-OH) | 297 µM |
| CC(C)[C@H](NC(=O)[C@@H](N)Cc1c[nH]c2ccccc12)C(=O)N[C@@H](C)C(=O)O [WVA] (H-Trp-Val-Ala-OH) | 341 µM |
| CC(C)[C@H](NC(=O)[C@@H](N)Cc1c[nH]c2ccccc12)C(=O)N[C@@H](CS)C(=O)O [WVC] (H-Trp-Val-Cys-OH) | 232 µM |
| CC(C)[C@H](NC(=O)[C@@H](N)Cc1c[nH]c2ccccc12)C(=O)N[C@@H](CC(=O)O)C(=O)O [WVD] (H-Trp-Val-Asp-OH) | 343 µM |
| CC(C)[C@H](NC(=O)[C@@H](N)Cc1c[nH]c2ccccc12)C(=O)N[C@@H](CCC(=O)O)C(=O)O [WVE] (H-Trp-Val-Glu-OH) | 193 µM |
